Legend:
[1] = TLC metabolite analysis of blood samples, mice; format: in vivo; conditions: plasma
Procedure: Monkeys were anesthetized with intramuscular administration of ketamine (10 mg/kg) and xylazine (0.5 mg/kg) with isoflurane inhalation anesthesia. Planar and Single Photon Emission Computed Tomography (SPECT) imaging was performed in monkeys using a γ-camera system (E-cam, Siemens, Erlangen, Germany) immediately after administration to 1 h and at 3 and 24 h post-administration of [^211At]PSMA-5 (9 MBq/kg), targeting the X-rays emitted from the daughter nuclide ^211Po (energy window: 79 keV ± 20%). Subsequent image analysis was performed by setting the regions of interest using Osirix MD software (Version 13, Pixmeo SARL, Bernex, Switzerland) and PMOD software (Version 3.903, PMOD Technologies, Fällanden, Switzerland). Blood samples were obtained pre-administration and at 1, 3, and 24 h post-administration, followed by euthanasia via bloodletting at 24 h.
The blood samples were centrifuged at 3000 rpm for 5 min, and the resulting plasma was mixed with twice the volume of ethanol, then agitated vigorously. The supernatants were analyzed by thin-layer chromatography (TLC).

[2] = Histological evaluation in monkeys; format: in vivo, cynomolgus monkeys; conditions: 9 MBq/kg, 24 h
Procedure: [^211At]PSMA-5 was administered intravenously to 25 mice, and its biodistribution was evaluated. For the toxicity study, three doses of [^211At]PSMA-5 (5, 12, and 35 MBq/kg, single dose) or saline were intravenously administered to 10 mice/group for the main evaluation point on day 1, and 5-mice/group for recovery evaluation on day 14, adhering to the ICH M3 (R2) guidelines. The dosage was determined based on our previous study using [^211At]NaAt. The monkeys were monitored for 24 h post-administration of [^211At]PSMA-5 (9 MBq/kg).
The brain, salivary gland, thyroid, heart, lungs, liver, kidney, adrenal gland, pancreas, spleen, thymus, stomach, small intestine, large intestine, bladder, prostate, and testes were collected on days 1 or 14 in mice and at 24 h in monkeys. Additionally, the pituitary gland, tongue, trachea, esophagus, mesenteric lymph nodes, epididymis, seminal vesicles, skin, mammary glands, spinal cord, bone, bone marrow (femur), eyeball, and optic nerve were collected from the mice. After fixation, paraffin sections were prepared and stained with hematoxylin and eosin (HE). All the specimens were evaluated by an expert in toxic pathology using an integrated fluorescence microscope (BZ-X810; Keyence Corporation. Osaka, Japan). In mice, the brain, salivary glands, heart, lungs, liver, gallbladder, spleen, kidneys, and testes were weighed according to ICH S4 guideline.

[3] = design: method as in PMID 35553387; conditions: LNCaP xenograft mice, 1MBq (53MBq/kg), 3 and 6 weeks after administration; cited from earlier work

O=C(O)CC[C@H](NC(=O)N[C@@H](CCCCNC(=O)[C@@H](Cc1ccc2ccccc2c1)NC(=O)c1ccc(CNC(=O)[C@@H](CCC(=O)O)NC(=O)[C@@H](CCC(=O)O)NC(=O)Cc2ccc([211At])cc2)cc1)C(=O)O)C(=O)O [[^211At]PSMA-5]
metabolites in blood samples (TLC) [1]: no metabolites were detected
administration-related pathology in brain, salivary glands, thyroid, heart, liver, gallbladder, pancreas, rectum, kidney, bladder, adrenal glands, prostate [2]: No pathological abnormalities
crypt epithelial cells of the small and large (cecum) intestines [2]: Mild single-cell necrosis/apoptosis
tingible body macrophages in white pulp of the spleen, intraparotid and intrapulmonary lymph nodes [2]: mild increase
kidney histology [3]: regenerated tubules were observed

From article PMC11172375, “Preclinical Evaluation of Biodistribution and Toxicity of [^211At]PSMA-5 in Mice and Primates for the Targeted Alpha Therapy against Prostate Cancer” (International Journal of Molecular Sciences, 2024)
